Measured values: patent US11140896B2, “Two components disinfecting composition containing peracetic acid and chelating agent” (ECOLAB USA INC., priority 2014, dated 2021)

Assay: Screening of different concentrations of the chelating agent GLDA (peracetic acid concentration over storage)
Assay type: physicochemical

O=C([O-])CC[C@@H](C(=O)[O-])N(CC(=O)[O-])CC(=O)[O-].[Na+].[Na+].[Na+].[Na+] [GLDA, N,N-bis(carboxymethyl)-L-glutamic acid tetrasodium salt]
peracetic acid concentration of the aqueous disinfectant solution (0.05 wt.-% GLDA in component (B), day 0, 23° C.): 2314 ppm | peracetic acid concentration of the aqueous disinfectant solution (0.05 wt.-% GLDA in component (B), day 1, 23° C.): 2220 ppm | peracetic acid concentration of the aqueous disinfectant solution (0.05 wt.-% GLDA in component (B), day 4, 23° C.): 1847 ppm | peracetic acid concentration of the aqueous disinfectant solution (0.05 wt.-% GLDA in component (B), day 6, 23° C.): 1753 ppm | peracetic acid concentration of the aqueous disinfectant solution (0.05 wt.-% GLDA in component (B), day 7, 23° C.): 1653 ppm | peracetic acid concentration of the aqueous disinfectant solution (0.05 wt.-% GLDA in component (B), day 8, 23° C.): 1563 ppm | peracetic acid concentration of the aqueous disinfectant solution (0.05 wt.-% GLDA in component (B), day 9, 23° C.): 1466 ppm | peracetic acid concentration of the aqueous disinfectant solution (0.05 wt.-% GLDA in component (B), day 15, 23° C.): 829 ppm | peracetic acid concentration of the aqueous disinfectant solution (0.1 wt.-% GLDA in component (B), day 0, 23° C.): 2346 ppm | peracetic acid concentration of the aqueous disinfectant solution (0.1 wt.-% GLDA in component (B), day 1, 23° C.): 2202 ppm | peracetic acid concentration of the aqueous disinfectant solution (0.1 wt.-% GLDA in component (B), day 4, 23° C.): 1856 ppm | peracetic acid concentration of the aqueous disinfectant solution (0.1 wt.-% GLDA in component (B), day 6, 23° C.): 1793 ppm | peracetic acid concentration of the aqueous disinfectant solution (0.1 wt.-% GLDA in component (B), day 7, 23° C.): 1682 ppm | peracetic acid concentration of the aqueous disinfectant solution (0.1 wt.-% GLDA in component (B), day 8, 23° C.): 1636 ppm | peracetic acid concentration of the aqueous disinfectant solution (0.1 wt.-% GLDA in component (B), day 9, 23° C.): 1566 ppm | peracetic acid concentration of the aqueous disinfectant solution (0.1 wt.-% GLDA in component (B), day 15, 23° C.): 1075 ppm | stabilisation of peracetic acid, comparison of GLDA concentrations (0.1 wt.-% GLDA in the stabilizer component (B)): best stabilisation | peracetic acid concentration of the aqueous disinfectant solution (0.5 wt.-% GLDA in component (B), day 0, 23° C.): 2408 ppm | peracetic acid concentration of the aqueous disinfectant solution (0.5 wt.-% GLDA in component (B), day 1, 23° C.): 2113 ppm | peracetic acid concentration of the aqueous disinfectant solution (0.5 wt.-% GLDA in component (B), day 4, 23° C.): 1821 ppm | peracetic acid concentration of the aqueous disinfectant solution (0.5 wt.-% GLDA in component (B), day 6, 23° C.): 1718 ppm | peracetic acid concentration of the aqueous disinfectant solution (0.5 wt.-% GLDA in component (B), day 7, 23° C.): 1682 ppm | peracetic acid concentration of the aqueous disinfectant solution (0.5 wt.-% GLDA in component (B), day 8, 23° C.): 1625 ppm | peracetic acid concentration of the aqueous disinfectant solution (0.5 wt.-% GLDA in component (B), day 9, 23° C.): 1512 ppm | peracetic acid concentration of the aqueous disinfectant solution (0.5 wt.-% GLDA in component (B), day 15, 23° C.): 1016 ppm | shelf life of the aqueous disinfectant use solution (component (B) comprised 0.05 wt.-%, 0.1 wt.-% or 0.5 wt.-% GLDA): about 14 days
